According to patent US20100267561A1, “HERBICIDAL PYRIDAZINONE DERIVATIVES” (priority 2007, published 2010):

Tests used:
Assay in all cases: Test B pre-/postemergence plant response
Type in all cases: in vivo
[1] = system: wheat (Triticum aestivum)
Outline: (§1)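 Seeds were sown and sprayed preemergence, while plants at 2 to 18 cm (1- to 4-leaf stage) got postemergence sprays. Compounds were formulated in a non-phytotoxic solvent mixture with surfactant. After 13 to 15 days in a greenhouse, injury was rated visually against untreated controls, 0 (no effect) to 100 (complete control).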

wild oat (Avena fatua) = system: wild oat (Avena fatua)
Outline: as §1

[2] = system: giant foxtail (Setaria faberii)
Outline: as §1

[3] = system: catchweed bedstraw (Galium aparine); details: Preemergence; for Galium plant response rating: scale 0 to 100
Outline: as §1

corn (Zea mays) = system: corn (Zea mays)
Outline: as §1

[4] = system: downy bromegrass (Bromus tectorum); details: for Bromegrass, Downy plant response rating: 8 g ai/ha
Outline: as §1

[5] = system: bermudagrass (Cynodon dactylon); details: for Bermudagrass plant response rating: 8 g ai/ha
Outline: as §1

[6] = system: lambsquarters (Chenopodium album); details: for Lambsquarters plant response rating: postemergence, 0-100 scale; for Plant response rating, Lambsquarters: Postemergence
Outline: as §1

[7] = system: blackgrass (Alopecurus myosuroides); details: for Blackgrass plant response rating: 8 g ai/ha
Outline: as §1

[8] = system: velvetleaf (Abutilon theophrasti)
Outline: as §1

[9] = system: large crabgrass (Digitaria sanguinalis)
Outline: as §1

[10] = system: green foxtail (Setaria viridis)
Outline: as §1

[11] = system: morningglory (Ipomoea coccinea)
Outline: as §1

[12] = system: common (oilseed) sunflower (Helianthus annuus); details: Preemergence; for Sunflower plant response rating: scale 0 to 100
Outline: as §1

[13] = 8 g ai/ha, postemergence, 0-100 scale
[14] = 16 g ai/ha, postemergence, 0-100 scale
[15] = Postemergence, 31 g ai/ha, scale 0 to 100
[16] = Postemergence, 62 g ai/ha, scale 0 to 100, 0 no effect, 100 complete control
[17] = Preemergence, 31 g ai/ha, scale 0 to 100 (0 no effect, 100 complete control)
[18] = Preemergence, 62 g ai/ha, 0 to 100 scale, 0 no effect, 100 complete control
[19] = Preemergence, 16 g ai/ha, scale 0 to 100
[20] = Preemergence, 8 g ai/ha, scale 0 to 100
[21] = Postemergence, 16 g ai/ha, scale 0 to 100
[22] = 31 g ai/ha, scale 0 to 100 (0 no effect, 100 complete control)
[23] = 62 g ai/ha, 0 to 100 scale, 0 no effect, 100 complete control
[24] = Preemergence, 16 g ai/ha, scale 0 to 100 (0 no effect, 100 complete control)

SMILES: CCc1cc(-c2ccc(C(F)(F)F)cc2)nn1-c1c(O)cnn(CC)c1=O [Compound 67]
- Wheat plant response rating [1, 13]: 95
- Wheat plant response rating [1, 14]: 100
- Plant response rating, Wheat [1, 15]: 100
- Plant response rating, Wheat [1, 16]: 100
- Plant response rating, Wheat [1, 17]: 100
- Plant response rating, Wheat [1, 18]: 100
- Wheat plant response rating [1, 19]: 70
- Oat, Wild plant response rating (wild oat (Avena fatua); [13]): 100
- Oat, Wild plant response rating (wild oat (Avena fatua); [14]): 100
- Plant response rating, Oat, Wild (wild oat (Avena fatua); [15]): 100
- Plant response rating, Oat, Wild (wild oat (Avena fatua); [16]): 100
- Plant response rating, Oat, Wild (wild oat (Avena fatua); [17]): 95
- Plant response rating, Oat, Wild (wild oat (Avena fatua); [18]): 100
- Oat, Wild plant response rating (wild oat (Avena fatua); [20]): 90
- Oat, Wild plant response rating (wild oat (Avena fatua); [19]): 95
- Foxtail, Giant plant response rating [2, 13]: 85
- Plant response rating, Foxtail, Giant [2, 21]: 95
- Plant response rating, Foxtail, Giant [2, 15]: 100
- Plant response rating, Foxtail, Giant [2, 16]: 100
- Plant response rating, Foxtail, Giant [2, 17]: 0
- Plant response rating, Foxtail, Giant [2, 18]: 0
- Foxtail, Giant plant response rating [2, 20]: 0
- Foxtail, Giant plant response rating [2, 19]: 0
- Plant response rating, Galium [3, 22]: 0
- Plant response rating, Galium [3, 23]: 0
- Galium plant response rating ([3]; 8 g ai/ha): 0
- Galium plant response rating ([3]; 16 g ai/ha): 0
- Corn plant response rating (corn (Zea mays); [13]): 75
- Plant response rating, Corn (corn (Zea mays); [21]): 90
- Plant response rating, Corn (corn (Zea mays); [15]): 100
- Plant response rating, Corn (corn (Zea mays); [16]): 100
- Plant response rating, Corn (corn (Zea mays); [17]): 100
- Plant response rating, Corn (corn (Zea mays); [18]): 100
- Corn plant response rating (corn (Zea mays); [20]): 60
- Corn plant response rating (corn (Zea mays); [19]): 98
- Bromegrass, Downy plant response rating ([4]; postemergence, 0-100 scale): 55
- Plant response rating, Bromegrass, Downy [4, 21]: 80
- Plant response rating, Bromegrass, Downy [4, 15]: 80
- Plant response rating, Bromegrass, Downy [4, 16]: 100
- Plant response rating, Bromegrass, Downy [4, 24]: 90
- Plant response rating, Bromegrass, Downy [4, 17]: 100
- Plant response rating, Bromegrass, Downy [4, 18]: 100
- Bromegrass, Downy plant response rating ([4]; Preemergence, scale 0 to 100): 50
- Bermudagrass plant response rating ([5]; postemergence, 0-100 scale): 0
- Plant response rating, Bermudagrass [5, 21]: 0
- Plant response rating, Bermudagrass [5, 15]: 60
- Plant response rating, Bermudagrass [5, 16]: 75
- Bermudagrass plant response rating ([5]; Preemergence, scale 0 to 100 (0 no effect, 100 complete control)): 0
- Plant response rating, Bermudagrass [5, 24]: 0
- Plant response rating, Bermudagrass [5, 17]: 0
- Plant response rating, Bermudagrass [5, 18]: 0
- Lambsquarters plant response rating ([6]; 8 g ai/ha): 0
- Lambsquarters plant response rating ([6]; 16 g ai/ha): 0
- Plant response rating, Lambsquarters ([6]; 31 g ai/ha, scale 0 to 100): 0
- Plant response rating, Lambsquarters ([6]; 62 g ai/ha, scale 0 to 100, 0 no effect, 100 complete control): 0
- Blackgrass plant response rating ([7]; postemergence, 0-100 scale): 85
- Plant response rating, Blackgrass [7, 21]: 100
- Plant response rating, Blackgrass [7, 15]: 100
- Plant response rating, Blackgrass [7, 16]: 100
- Plant response rating, Blackgrass [7, 24]: 100
- Plant response rating, Blackgrass [7, 17]: 100
- Plant response rating, Blackgrass [7, 18]: 100
- Blackgrass plant response rating ([7]; Preemergence, scale 0 to 100): 100
- Velvetleaf plant response rating [8, 13]: 0
- Velvetleaf plant response rating [8, 14]: 0
- Plant response rating, Velvetleaf [8, 15]: 0
- Plant response rating, Velvetleaf [8, 16]: 0
- Plant response rating, Velvetleaf [8, 17]: 0
- Plant response rating, Velvetleaf [8, 18]: 0
- Velvetleaf plant response rating [8, 20]: 0
- Velvetleaf plant response rating [8, 19]: 0
- Crabgrass, Large plant response rating [9, 13]: 70
- Plant response rating, Crabgrass, Large [9, 21]: 98
- Plant response rating, Crabgrass, Large [9, 15]: 100
- Plant response rating, Crabgrass, Large [9, 16]: 100
- Plant response rating, Crabgrass, Large [9, 17]: 0
- Plant response rating, Crabgrass, Large [9, 18]: 0
- Crabgrass, Large plant response rating [9, 20]: 0
- Crabgrass, Large plant response rating [9, 19]: 0
- Foxtail, Green plant response rating [10, 13]: 65
- Plant response rating, Foxtail, Green [10, 21]: 70
- Plant response rating, Foxtail, Green [10, 15]: 98
- Plant response rating, Foxtail, Green [10, 16]: 100
- Plant response rating, Foxtail, Green [10, 17]: 100
- Plant response rating, Foxtail, Green [10, 18]: 100
- Foxtail, Green plant response rating [10, 20]: 100
- Foxtail, Green plant response rating [10, 19]: 100
- Morningglory plant response rating [11, 13]: 0
- Morningglory plant response rating [11, 14]: 0
- Plant response rating, Morningglory [11, 15]: 0
- Plant response rating, Morningglory [11, 16]: 0
- Plant response rating, Morningglory [11, 17]: 0
- Plant response rating, Morningglory [11, 18]: 0
- Morningglory plant response rating [11, 20]: 0
- Morningglory plant response rating [11, 19]: 0
- Plant response rating, Sunflower [12, 22]: 0
- Plant response rating, Sunflower [12, 23]: 0
- Sunflower plant response rating ([12]; 8 g ai/ha): 0
- Sunflower plant response rating ([12]; 16 g ai/ha): 0
